Reference: ChEMBL document CHEMBL4673266, “Sulfonamide antibiotics inhibit RNAi by binding to human Argonaute protein 2 PAZ” (Bioorg Med Chem Lett, 2020)
The source made the active and inactive calls. The rule behind the calls is not given here.

Tests used:
Protein argonaute-2 [1] = molecular target: T1, Protein argonaute-2 (Homo sapiens, UniProt Q9UKV8); test: Binding affinity to human Argonaut protein 2 PAZ domain assessed as association constant by using isothermal titration microcalorimetry
Protein argonaute-2 [2] = molecular target: T1, Protein argonaute-2; test: Binding affinity to human Argonaut protein 2 PAZ domain assessed as dissociation constant by using isothermal titration microcalorimetry
Protein argonaute-2 [3] = molecular target: T1, Protein argonaute-2; test: Binding affinity to human Argonaut protein 2 PAZ domain assessed as change in enthalpy by isothermal titration microcalorimetry
Protein argonaute-2 [4] = molecular target: T1, Protein argonaute-2; test: Binding affinity to human Argonaut protein 2 PAZ domain assessed as change in entropy by isothermal titration microcalorimetry
HeLa [5] = test: Inhibition of RNAi in human Hela cells expressing Renilla/firefly luciferase genes and siRNA assessed as siRNA-mediated gene silencing activity at 100 to 500 nM by dual luciferase assay relative to control; assay type: cell-based; details: dose 100-500 nM
HeLa [6] = test: Inhibition of RNAi in human Hela cells expressing Renilla/firefly luciferase genes and siRNA assessed as siRNA-mediated gene silencing activity at 500 nM by dual luciferase assay relative to control; assay type: cell-based

T1 sequence (Q9UKV8 whole entry, the tested form may be a part): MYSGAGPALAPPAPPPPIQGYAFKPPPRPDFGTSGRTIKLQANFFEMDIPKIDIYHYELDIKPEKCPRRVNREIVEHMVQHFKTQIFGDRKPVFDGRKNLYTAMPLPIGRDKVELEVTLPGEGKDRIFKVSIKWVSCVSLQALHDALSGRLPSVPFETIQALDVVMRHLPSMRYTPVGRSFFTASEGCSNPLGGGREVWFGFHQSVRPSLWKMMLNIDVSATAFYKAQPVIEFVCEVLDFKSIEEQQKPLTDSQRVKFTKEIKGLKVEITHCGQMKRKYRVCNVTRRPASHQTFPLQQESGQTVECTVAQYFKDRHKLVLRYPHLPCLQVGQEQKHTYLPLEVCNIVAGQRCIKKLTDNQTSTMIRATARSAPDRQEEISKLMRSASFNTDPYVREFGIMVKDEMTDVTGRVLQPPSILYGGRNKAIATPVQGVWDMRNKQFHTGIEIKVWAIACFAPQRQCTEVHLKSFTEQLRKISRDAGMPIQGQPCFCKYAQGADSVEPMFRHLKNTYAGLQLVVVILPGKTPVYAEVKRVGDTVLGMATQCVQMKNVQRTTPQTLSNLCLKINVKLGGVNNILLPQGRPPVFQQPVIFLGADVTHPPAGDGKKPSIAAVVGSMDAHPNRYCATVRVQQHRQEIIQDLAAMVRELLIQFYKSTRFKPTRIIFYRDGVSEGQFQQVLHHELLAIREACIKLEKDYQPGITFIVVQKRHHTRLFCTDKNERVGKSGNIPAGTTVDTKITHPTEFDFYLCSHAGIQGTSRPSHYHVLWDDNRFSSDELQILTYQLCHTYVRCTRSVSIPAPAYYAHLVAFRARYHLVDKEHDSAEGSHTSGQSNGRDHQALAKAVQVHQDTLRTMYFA

SMILES: Cc1cc(NS(=O)(=O)c2ccc(N)cc2)nc(C)n1 [SULFISOMIDINE]
- Ka (Protein argonaute-2 [1]): 23 10^4/M
- Kd (Protein argonaute-2 [2]): 4.3 µM
- deltaH (Protein argonaute-2 [3]): -1.5 kcal/mol
- deltaS (Protein argonaute-2 [4]): 19.2 cal/mol.K
- inhibition (HeLa [5]): Dose-dependent effect
- inhibition (HeLa [6]): Active

SMILES: O=c1ccn([C@@H]2O[C@H](COP(=O)(O)O)[C@@H](O)[C@H]2O)c(=O)[nH]1
- Ka (Protein argonaute-2 [1]): 6.6 10^4/M
- deltaH (Protein argonaute-2 [3]): -0.9 kcal/mol
- deltaS (Protein argonaute-2 [4]): 18.2 cal/mol.K

SMILES: Nc1ccc(S(N)(=O)=O)cc1
- deltaS (Protein argonaute-2 [4]): 15.7 cal/mol.K
- inhibition (HeLa [5]): inactive

SMILES: [H]/N=C(/N)NS(=O)(=O)c1ccc(N)cc1 [SULFAGUANIDINE]
- Kd (Protein argonaute-2 [2]): 49 µM

SMILES: N=C(N)NS(=O)(=O)c1ccc(N)cc1
- Ka (Protein argonaute-2 [1]): 2 10^4/M
- deltaH (Protein argonaute-2 [3]): -1.5 kcal/mol
- deltaS (Protein argonaute-2 [4]): 15.6 cal/mol.K
- inhibition (HeLa [5]): inactive
